In US20130281399A1, “TREATMENT OF DISEASES BY EPIGENETIC REGULATION” (RVX Therapeutics Inc., priority 2012, published 2013):

molecular target: T1, Brd4 bromodomain 1 (Homo sapiens, UniProt O60885); experiment: Inhibition of binding of tetra-acetylated histone H4 to Brd4 bromodomain 1 (TR-FRET); conditions: His-tagged Brd4 bromodomain 1 200 nM, tetra-acetylated histone H4 peptide 25-50 nM, 2 hours room temperature
T1 construct: made in house; host or cells: E. coli BL21(DE3)
Method: Proteins were cloned and overexpressed with a N-terminal 6×His tag, then purified by nickel affinity followed by size exclusion chromatography. Briefly, E. coli BL21(DE3) cells were transformed with a recombinant expression vector encoding N-terminally Nickel affinity tagged bromodomains from Brd2, Brd3, Brd4. Cell cultures were incubated at 37° C. with shaking to the appropriate density and induced overnight with IPTG. The supernatant of lysed cells was loaded onto Ni-IDA column for purification. Eluted protein was pooled, concentrated and further purified by size exclusion chromatography. Fractions representing monomeric protein were pooled, concentrated, aliquoted, and frozen at −80° C. for use in subsequent experiments.
For inhibition assays, serially diluted test compound was added to these reactions in a 0.2% final concentration of DMSO. Final buffer concentrations were 30 mM HEPES pH 7.4, 30 mM NaCl, 0.3 mM CHAPS, 20 mM phosphate pH 7.0, 320 mM KF, 0.08% BSA). […] The binding inhibitory activity was shown by a decrease in 665 nm fluorescence relative to 620 nm. IC50 values were determined from a dose response curve.

**Q.** For COc1cc(OC)c2c(=O)[nH]c(-c3ccc(N4CCN(C(=O)c5ccc(F)cc5)CC4)cc3)nc2c1 [Example 19, 2-(4-(4-(4-Fluorobenzoyl)piperazin-1-yl)phenyl)-5,7-dimethoxyquinazolin-4(3H)-one], which “FRET activity (<50 uM)” value is on record?
**A.** Its value is “Inactive”.

**Q.** COc1cc(OC)c2c(=O)[nH]c(-c3ccc(N4CCN(C(=O)c5ccccc5)CC4)cc3)nc2c1 [Example 18, 2-(4-(4-Benzoylpiperazin-1-yl)phenyl)-5,7-dimethoxyquinazolin-4(3H)-one] was tested. Which “FRET activity (<50 uM)” value did it give?
**A.** The value was “Inactive”.

**Q.** COc1cc(OCCOC(C)C)c2c(=O)[nH]c(-c3cc(C)nc(C)c3)nc2c1 [Example 6, 2-(2,6-dimethylpyridin-4-yl)-5-(2-isopropoxyethoxy)-7-methoxyquinazolin-4(3H)-one] was tested. Which “FRET activity (<50 uM)” value did it give?
**A.** Its value is “Active”.

**Q.** With COc1cc(OC)c2c(=O)[nH]c(-c3ccc(N4CCC(N(C)C(C)=O)C4)cc3)nc2c1 (centres unmarked) [Example 46, N-(1-(4-(5,7-dimethoxy-4-oxo-3,4-dihydroquinazolin-2-yl)phenyl)pyrrolidin-3-yl)-N-methylacetamide] as the compound, how does the “FRET activity (<50 uM)” value read?
**A.** Its value is “Active”.

**Q.** For Cc1cc(-c2nc3nc(OC(C)C)cc(OC(C)C)c3c(=O)[nH]2)cc(C)c1OCCN1CCCC1 [Example 91, 2-(3,5-Dimethyl-4-(2-(pyrrolidin-1-yl)ethoxy)phenyl)-5,7-diisopropoxypyrido[2,3-d]pyrimidin-4(3H)-one], which “FRET activity (<50 uM)” value is on record?
**A.** The value was “Inactive”.

**Q.** Which “FRET activity (<50 uM)” value does the source give for COc1cc(OC)c2c(=O)[nH]c(-c3ccc(N4CCN(C(=O)c5ccccn5)CC4)cc3)nc2c1 [Example 21, 5,7-Dimethoxy-2-(4-(4-picolinoylpiperazin-1-yl)phenyl)quinazolin-4(3H)-one] here?
**A.** The value was “Active”.

**Q.** With COc1cc(OC)c2c(=O)[nH]c(-c3ccc(N4CCC(NCc5ccccc5)CC4)nc3)nc2c1 [Example 50, 2-(6-(4-(Benzylamino)piperidin-1-yl)pyridin-3-yl)-5,7-dimethoxyquinazolin-4(3H)-one] as the compound, how does the “FRET activity (<50 uM)” value read?
**A.** Its value is “Active”.

**Q.** Which “FRET activity (<50 uM)” value does the source give for COc1cc(OC)c2c(=O)[nH]c(-c3ccc(N4CCC(NC(=O)N(C)C)CC4)cc3)nc2c1 [Example 15, 3-(1-(4-(5,7-Dimethoxy-4-oxo-3,4-dihydroquinazolin-2-yl)phenyl)piperidin-4-yl)-1,1-dimethylurea] here?
**A.** Its value is “Active”.

**Q.** COc1cc(OC)c2c(=O)[nH]c(-c3ccc(N4CCN(C=O)CC4)cc3)nc2c1 [Example 51, 4-(4-(5,7-Dimethoxy-4-oxo-3,4-dihydroquinazolin-2-yl)phenyl)piperazine-1-carbaldehyde] was tested. Which “FRET activity (<50 uM)” value did it give?
**A.** The value was “Active”.

**Q.** For COc1cc(OC)c2c(=O)[nH]c(-c3ccc(N4CCC(NC(C)C)CC4)cc3)nc2c1 [Example 47, 2-(4-(4-(Isopropylamino)piperidin-1-yl)phenyl)-5,7-dimethoxyquinazolin-4(3H)-one], which “FRET activity (<50 uM)” value is on record?
**A.** The value was “Active”.

**Q.** How did the “FRET activity (<50 uM)” value turn out when O=c1[nH]c(-c2ccc(N3CCN(CC(F)(F)F)CC3)cc2)nc2ccccc12 [Example 31, 2-(4-(4-(2,2,2-Trifluoroethyl)piperazin-1-yl)phenyl)quinazolin-4(3H)-one] was run?
**A.** Its value is “Inactive”.

**Q.** Which “FRET activity (<50 uM)” value does the source give for CNC1CCN(c2ccc(-c3nc4cc(OC)cc(OC)c4c(=O)[nH]3)cc2)C1 (centres unmarked) [Example 44, 5,7-Dimethoxy-2-(4-(3-(methylamino)pyrrolidin-1-yl)phenyl)quinazolin-4(3H)-one] here?
**A.** The value was “Active”.

**Q.** Which “FRET activity (<50 uM)” value does the source give for COc1cc(OC)c2c(=O)[nH]c(-c3ccc(Nc4ccncc4)cc3)nc2c1 [Example 60, 5,7-Dimethoxy-2-(4-(pyridin-4-ylamino)phenyl)quinazolin-4(3H)-one] here?
**A.** Its value is “Active”.

**Q.** For COc1cc(OC)c2c(=O)[nH]c(-c3ccc(CN4CCN(C(C)C)CC4)cc3)nc2c1 [Example 93, 2-(4-((4-Isopropylpiperazin-1-yl)methyl)phenyl)-5,7-dimethoxyquinazolin-4(3H)-one], which “FRET activity (<50 uM)” value is on record?
**A.** Its value is “Active”.

**Q.** How did the “FRET activity (<50 uM)” value turn out when COc1cc(OC)c2c(=O)[nH]c(-c3ccc(Nc4cccnc4)cc3)nc2c1 [Example 62, 5,7-Dimethoxy-2-(4-(pyridin-3-ylamino)phenyl)quinazolin-4(3H)-one] was run?
**A.** The value was “Active”.

**Q.** For CCCCN1CCN(c2ccc(-c3nc4cc(OC)cc(OC)c4c(=O)[nH]3)cc2)CC1 [Example 2, 2-(4-(4-butylpiperazin-1-yl)phenyl)-5,7-dimethoxyquinazolin-4(3H)-one], which “FRET activity (<50 uM)” value is on record?
**A.** Its value is “Active”.

**Q.** For COc1cc(OC)c2c(=O)[nH]c(-c3ccc(N4CCCNCC4)cc3)nc2c1 [Example 33, 2-(4-(1,4-Diazepan-1-yl)phenyl)-5,7-dimethoxyquinazolin-4(3H)-one], which “FRET activity (<50 uM)” value is on record?
**A.** Its value is “Active”.

**Q.** With COc1cc(OC)c2c(=O)[nH]c(-c3ccc(C4CCN(C(C)=O)CC4)cc3)nc2c1 [Example 3, 2-(4-(1-acetylpiperidin-4-yl)phenyl)-5,7-dimethoxyquinazolin-4(3H)-one] as the compound, how does the “FRET activity (<50 uM)” value read?
**A.** The value was “Active”.

**Q.** COc1cc(OC)c2c(=O)[nH]c(-c3ccc(N4CCCN(C)CC4)cc3)nc2c1 [Example 34, 5,7-Dimethoxy-2-(4-(4-methyl-1,4-diazepan-1-yl)phenyl)quinazolin-4(3H)-one] was tested. Which “FRET activity (<50 uM)” value did it give?
**A.** Its value is “Active”.

**Q.** For COc1cc(OC)c2c(=O)[nH]c(-c3ccc(N4CCN(C(=O)c5cc(Cl)sc5Cl)CC4)cc3)nc2c1 [Example 27, 2-(4-(4-(2,5-Dichlorothiophene-3-carbonyl)piperazin-1-yl)phenyl)-5,7-dimethoxyquinazolin-4(3H)-one], which “FRET activity (<50 uM)” value is on record?
**A.** Its value is “Active”.

**Q.** For CC(C)N1CCN(c2ccc(-c3nc4cccc(Cl)c4c(=O)[nH]3)cc2)CC1 [Example 41, 5-Chloro-2-(4-(4-isopropylpiperazin-1-yl)phenyl)quinazolin-4(3H)-one], which “FRET activity (<50 uM)” value is on record?
**A.** Its value is “Inactive”.

**Q.** With COc1cc(OC)c2c(=O)[nH]c(-c3cc(C)c(OCCCN4CCCC4)c(C)c3)nc2c1 [Example 75, 2-(3,5-Dimethyl-4-(3-(pyrrolidin-1-yl)propoxy)phenyl)-5,7-dimethoxyquinazolin-4(3H)-one] as the compound, how does the “FRET activity (<50 uM)” value read?
**A.** The value was “Active”.

**Q.** With COc1cc(OC)c2c(=O)[nH]c(-c3ccc4[nH]c(CN5CCCC5)cc4c3)nc2c1 [Example 55, 5,7-Dimethoxy-2-(2-(pyrrolidin-1-ylmethyl)-1H-indol-5-yl)quinazolin-4(3H)-one] as the compound, how does the “FRET activity (<50 uM)” value read?
**A.** Its value is “Active”.

**Q.** Which “FRET activity (<50 uM)” value does the source give for COc1cc(OC)c2c(=O)[nH]c(-c3ccc(N4CCN(C(C)=O)C(C)C4)cc3)nc2c1 (centres unmarked) [Example 38, 2-(4-(4-Acetyl-3-methylpiperazin-1-yl)phenyl)-5,7-dimethoxyquinazolin-4(3H)-one] here?
**A.** The value was “Active”.

**Q.** How did the “FRET activity (<50 uM)” value turn out when Cc1cc(-c2nc3cc(F)cc(N4CCCC4)c3c(=O)[nH]2)cc(C)c1OCCN1CCCC1 [Example 82, 2-(3,5-Dimethyl-4-(2-(pyrrolidin-1-yl)ethoxy)phenyl)-7-fluoro-5-(pyrrolidin-1-yl)quinazolin-4(3H)-one] was run?
**A.** The value was “Inactive”.

**Q.** COc1cc(OC)c2c(=O)[nH]c(-c3ccc(N4CCNCC4)cc3)nc2c1 [Example 12, 5,7-Dimethoxy-2-(4-(piperazin-1-yl)phenyl)quinazolin-4(3H)-one] was tested. Which “FRET activity (<50 uM)” value did it give?
**A.** Its value is “Active”.

**Q.** How did the “FRET activity (<50 uM)” value turn out when COc1cc(OC)c2c(=O)[nH]c(-c3ccc(N4CCC(N(C(C)=O)C(C)C)CC4)cc3)nc2c1 [Example 40, N-(1-(4-(5,7-dimethoxy-4-oxo-3,4-dihydroquinazolin-2-yl)phenyl)piperidin-4-yl)-N-isopropylacetamide] was run?
**A.** The value was “Inactive”.

**Q.** With COc1cc(OC)c2c(=O)[nH]c(-c3cc(C)c(OC[C@@H]4CCC(=O)N4)c(C)c3)nc2c1 [Example 92, (S)-2-(3,5-Dimethyl-4-((5-oxopyrrolidin-2-yl)methoxy)phenyl)-5,7-dimethoxyquinazolin-4(3H)-one] as the compound, how does the “FRET activity (<50 uM)” value read?
**A.** Its value is “Active”.

**Q.** For COc1cc(OC)c2c(=O)[nH]c(-c3ccc4[nH]c(CCN5CCCC5)cc4c3)nc2c1 [Example 57, 5,7-Dimethoxy-2-(2-(2-(pyrrolidin-1-yl)ethyl)-1H-indol-5-yl)quinazolin-4(3H)-one], which “FRET activity (<50 uM)” value is on record?
**A.** Its value is “Active”.

**Q.** COc1cc(OC)c2c(=O)[nH]c(-c3ccc(OC4CCN(C(C)=O)CC4)cc3)nc2c1 [Example 64, 2-(4-(1-Acetylpiperidin-4-yloxy)phenyl)-5,7-dimethoxyquinazolin-4(3H)-one] was tested. Which “FRET activity (<50 uM)” value did it give?
**A.** The value was “Active”.

**Q.** COc1cc(OC)c2c(=O)[nH]c(-c3ccc(N4CCN(C(=O)CC(F)(F)F)CC4)cc3)nc2c1 [Example 26, 5,7-Dimethoxy-2-(4-(4-(3,3,3-trifluoropropanoyl)piperazin-1-yl)phenyl)quinazolin-4(3H)-one] was tested. Which “FRET activity (<50 uM)” value did it give?
**A.** Its value is “Active”.

**Q.** COc1cc(OC)c2c(=O)[nH]c(-c3ccc(N4CCN(C(=O)c5cnn(C)c5Cl)CC4)cc3)nc2c1 [Example 25, 2-(4-(4-(5-Chloro-1-methyl-1H-pyrazole-4-carbonyl)piperazin-1-yl)phenyl)-5,7-dimethoxyquinazolin-4(3H)-one] was tested. Which “FRET activity (<50 uM)” value did it give?
**A.** The value was “Inactive”.

**Q.** For COc1cc(OC)c2c(=O)[nH]c(-c3ccc(C4CCNCC4)cc3)nc2c1 [Example 43, 5,7-Dimethoxy-2-(4-(piperidin-4-yl)phenyl)quinazolin-4(3H)-one], which “FRET activity (<50 uM)” value is on record?
**A.** Its value is “Active”.

**Q.** COc1cc(OC)c2c(=O)[nH]c(-c3ccc(N4C[C@@H](C)N(C(C)=O)[C@@H](C)C4)cc3)nc2n1 [Example 7, 2-(4-((3R,5S)-4-Acetyl-3,5-dimethylpiperazin-1-yl)phenyl)-5,7-dimethoxypyrido[2,3-d]pyrimidin-4(3H)-one] was tested. Which “FRET activity (<50 uM)” value did it give?
**A.** Its value is “Active”.

**Q.** COc1cc(OC)c2c(=O)[nH]c(-c3cc(C)c(OCCN4C(=O)CCC4=O)c(C)c3)nc2c1 [Example 97, 1-(2-(4-(5,7-Dimethoxy-4-oxo-3,4-dihydroquinazolin-2-yl)-2,6-dimethylphenoxy)ethyl)pyrrolidine-2,5-dione] was tested. Which “FRET activity (<50 uM)” value did it give?
**A.** Its value is “Active”.
